Test results: patent publication US4463001A, “6-Substituted 6H-dibenzo[b,d]pyran derivatives and process for their preparation” (Farmitalia Carlo Erba S.p.A., priority 1980, dated 1984)

Legend:
[1] = orientative acute toxicity (LD50) in mice; conditions: mouse, in vivo, single oral administration, assessed on seventh day
Description: The toxicity of the compounds of the invention is negligible. Nine hours food deprived mice were treated orally with single administration of increasing doses, then housed and normally fed. The orientative acute toxicity (LD50) was assessed on the seventh day after the treatment and, for example, the following data were obtained: […]

gastric secretion = experiment: inhibition of gastric secretion in pylorus-ligated rats (antisecretory activity, method of Shay); format: in vivo, rat (Sprague-Dawley male); conditions: 4 h; rat, intraduodenal, approximate ED50; read-out: Antisecretory activity ED50 i.d.
Description: According to this method the tested compounds were injected intraduodenally (i.d.) at the time of ligature.
Six Sprague-Dawley male rats (110-130 g) were used for each group. Twenty-four hours before the test, the rats were deprived of food but the water supply was maintained. On the day of the operation, the pylorus was ligated under light ether anaesthesia. Four hours after the ligature, the rats were sacrificed. The stomach secretion was collected and centrifugated at 3500 r.p.m. for 10 minutes and the volume, less sediment, was determined.
The amount of free hydrochloric acid in the gastric juice was determined by titration against 0.01N sodium hydroxide, to an end point of pH 7.

restraint ulcers = experiment: inhibition of restraint ulcers in rats (anti-ulcerogenic activity); format: in vivo, rat (Sprague-Dawley male); conditions: po, 4 h; rat, p.o., approximate ED50; read-out: Antiulcerogenic activity ED50 p.o.
Description: The compounds of the invention are also useful for reducing the undesirable gastrointestinal side-effects resulting from systemic administration of anti-inflammatory prostaglandin synthetase inhibitors and may be, therefore, used for this purpose in association with them. The anti-ulcerogenic activity of the compounds of the invention is shown, e.g., by the fact that they are active in the test of the inhibition of restraint ulcers in rats, according to the method of Bonfils et al., (Therapie, 1960, 5, 1096; Jap. J. Pharmac. 1945, 43, 5).
According to this method, the tested compounds were administered per os (p.o.) one hour before the immobilization. Six Sprague-Dawley male rats (100-120 g) fasted 24 hours were used for the experiment: a square flexible small-mesh wire netting was used for the immobilization and 4 hours after the immobilization the rats were sacrificed, their stomachs were removed and the lesions counted under a dissecting microscope.

[2] = tested on: syndrome induced by oxotremorine; experiment: antagonism against syndrome induced by oxotremorine in mice (anti-cholinergic activity); format: in vivo, mice (male); conditions: Mus musculus, po, approximate ED50, read-out: Anticholinergic activity ED50 p.o.
Description: Considering that many anti-ulcer agents display, as does atropine, a remarkable but undesired anti-cholinergic activity, the compounds of the invention were also assessed for their antagonism against syndrome induced by oxotremorine in mice, according to the method described by Leszkovszky G. P. and Tardos L. (Europ. J. Pharmac. 1971, 15, 310). According to this method 5 male mice, 20-25 g body weight, were used for each group.

[3] = tested on: antibody response against sheep red blood cells (SRBC); experiment: antibody response induced in mice by suboptimal dose of sheep red blood cells (immunomodulating activity); format: in vivo, mice (female CD-1); conditions: i.p., 50 and 5 mg/kg two hours before antigen, vs control group, six days later
Description: Their immunomodulating activity is, for example, proven by their capacity to modify the antibody response induced in mice by a suboptimal dose of sheep red blood cells (SRBC) injected by intraperitoneal route (i.p.).
Groups of ten female CD-1 mice were injected i.p. with 2×10^6 SRBC as antigen. The tested compounds were administered i.p. at two dosage levels: 50 and 5 mg/kg body weight, two hours before the administration of the antigen. A control group of mice received SRBC and saline instead of the compounds. Six days later the mice were killed and antibody titres against SRBC determined in their sera, according to Williams C. A.: Methods in Immunology and Immunochemistry, C. A. Williams and M. W. Chase, Eds. Academic Press, New York, Vol. II, page 152, 1977.

[4] = tested on: herpes simplex virus strain 1RC; experiment: herpes simplex virus experimental infection in mice; format: in vivo, CD-1 mice; conditions: single dose one or two days after the infection
Description: (§1) The antiviral activity of the compound of the invention was, for example, evaluated on influenza and herpes simplex viruses experimental infections in mice.
(§2) Groups of CD-1 mice were infected intranasally with the strain APR 8 of influenza virus and other groups were infected intraperitoneally with the strain 1RC of herpes simplex virus. The tested compounds were administered through various routes, e.g. intraperitoneally, subcutaneously, orally.
(§3) The effect of the tested compounds, against the influenza virus, was evaluated on the basis of the number of lung lesions and, against the herpes infection, the parameter considered was the protection from mortality since, as is known, herpes simplex infection is lethal in mice.

[5] = tested on: influenza virus strain APR 8; experiment: influenza virus experimental infection in mice; format: in vivo, CD-1 mice; conditions: single dose one or two days after the infection
Description: as §1, §2, §3

[6] = lipid-lowering activity in rats fed hypercholesterolaemic diet (Experiment 1); format: in vivo, rat (Icem:CER (SPF Caw) male)
Description: (§4) The activity of the compounds of the invention was evaluated: (1) on groups of Icem:CER (SPF Caw) male rats, fed for six days with hypercholesterolaemic diet according to C. E. Day: Shur P. E., Shultz H. R., Day C. E. (Ed.) Atherosclerosis and drug discovery Plenum Pub. Corp., 217 (1976): Experiment 1; or (2) or groups of Iva-SIV (SPF) male rats fed standard MS/K Altromin® diet: Experiment 2. MS/K Altromin is a trade mark.
(§5) The tested compounds were suspended in Methocel (methyl-cellulose, a 0.5% solution in water) and administered by stomach tube at the dose of 50 mg/kg for 4 days in both the experiments.
(§6) Groups of animals were treated with the suspending agent only (control groups).
(§7) The total serum cholesterol was determined with the method of Allain, Clin. Chem., 1974, 20, 470.
(§8) The total serum HDL cholesterol was determined according to Demacker P. N. H., Clin. Chem., 1977, 23, 1238.
(§9) The total β-lipoprotein cholesterol was determined by difference between total serum cholesterol and HDL cholesterol. Statistical analysis in experiment 1 and 2 was performed by the Student's t test for independent samples or by the Cochran's test when the variances were not homogeneous at the F ratio test [Bliss C. I., Statistics in Biology, Vol. 1, page 213 McGraw Hill Book Company, New York 1967; Cochran W. G., Cox C. H., Experimental designs-J. Willey and Sons Inc., New York, II Ed. (1968), page 100].

[7] = lipid-lowering activity in rats fed standard MS/K Altromin diet (Experiment 2); format: in vivo, rat (Iva-SIV (SPF) male)
Description: as §4, §5, §6, §7
The serum triglycerides were determined with the method of Mendez, J. Clin. Chem., 1975, 21, 768.
as §8, §9

[8] = Experiment 2, 50 mg/kg/os, vs control

Which LD50 at 168 h [1] does the source give for `CC1(C#N)Oc2ccccc2-c2ccccc21` (centres unmarked) [FCE 20519, 6H,6-cyano-6-methyl-dibenzo[b,d]pyran] here?
The LD50 at 168 h was over 800 mg/kg.

Which ED50 (gastric secretion) does the source give for `NCC1Oc2ccccc2-c2ccccc21` (centres unmarked) [FCE 20524, 6H,6-aminomethyl-dibenzo[b,d]pyran] here?
Its ED50 is 6 mg/kg.

And the ED50 (restraint ulcers)?
The ED50 was 4.8 mg/kg.

And the ED50 [2]?
Its ED50 is over 100 mg/kg.

What about the LD50 at 168 h [1] of the same compound?
The LD50 at 168 h was 400 to 800 mg/kg.

With `CCN(CC)CCOC(=O)C1Oc2ccccc2-c2ccccc21` (centres unmarked) [FCE 21849, 6H,6-(2-diethylaminoethoxycarbonyl)-dibenzo[b,d]pyran] as the compound, how does the “antibody titres against SRBC” value [3] read?
Its value is “increased the antibody titers several fold as compared to control group”.

What about the LD50 at 168 h [1] of the same compound?
Its LD50 at 168 h is 400 to 800 mg/kg.

With `CC1(C(=O)O)Oc2ccccc2-c2ccccc21` (centres unmarked) [FCE 20562, 6H,6-carboxy-6-methyl-dibenzo[b,d]pyran] as the compound, how does the LD50 at 168 h [1] read?
Its LD50 at 168 h is 400 to 800 mg/kg.

For `CCOC(=O)C1Oc2ccccc2-c2ccccc21` (centres unmarked) [FCE 20521, 6H,6-ethoxycarbonyl-dibenzo[b,d]pyran], which LD50 at 168 h [1] is on record?
The LD50 at 168 h was over 800 mg/kg.

For `CN(C)CCOC(=O)C1Oc2ccccc2-c2ccccc21` (centres unmarked) [FCE 20696, 6H,6-(2-dimethylaminoethoxycarbonyl)-dibenzo[b,d]pyran], which “antibody titres against SRBC” value [3] is on record?
Its value is “increased the antibody titers several fold as compared to control group”.

What about the “protection from mortality (animals protected from death)” value [4] of the same compound?
Its value is “up to 45%”.

What about the “number of lung lesions” value [5] of the same compound?
Its value is “reducing substantially the number of lung lesions”.

What about the LD50 at 168 h [1] of the same compound?
Its LD50 at 168 h is 400 to 800 mg/kg.

Which ED50 (gastric secretion) does the source give for `c1ccc2c(c1)OC(N1CCNCC1)c1ccccc1-2` (centres unmarked) [FCE 20618, 6H,6-(1-piperazinyl)-dibenzo[b,d]pyran] here?
Its ED50 is 1.5 mg/kg.

What about the ED50 (restraint ulcers) of the same compound?
Its ED50 is 7 mg/kg.

And the ED50 [2]?
Its ED50 is over 100 mg/kg.

And the LD50 at 168 h [1]?
The LD50 at 168 h was 400 to 800 mg/kg.

Which LD50 at 168 h [1] does the source give for `N#CC1(CO)Oc2ccccc2-c2ccccc21` (centres unmarked) [FCE 20518, 6H,6-cyano-6-hydroxymethyl-dibenzo[b,d]pyran] here?
Its LD50 at 168 h is over 800 mg/kg.

For `CC1(C(=O)O)Oc2ccc(Cl)cc2-c2ccccc21` (centres unmarked) [FCE 20770, 6H,6-carboxy-6-methyl-2-chloro-dibenzo[b,d]pyran], which LD50 at 168 h [1] is on record?
The LD50 at 168 h was 400 to 800 mg/kg.

What does the source list for `O=C(O)CC1Oc2ccccc2-c2ccccc21` (centres unmarked) [FCE 20881, 6H,6-carboxymethyl-dibenzo[b,d]pyran]?
Serum HDL total cholesterol, mean ± S.E. ([6]; Experiment 1, 50 mg/kg/os for 4 days, hypercholesterolaemic diet, control 13.2 ± 1.8): 23.2 ± 0.5 mg/100 ml; Total serum cholesterol, mean ± S.E. ([6]; Experiment 1, 50 mg/kg/os for 4 days, hypercholesterolaemic diet, control 459.6 ± 51.7): 240.0 ± 20.7 mg/100 ml; effect on total serum cholesterol and total HDL cholesterol ([6]; Experiment 1, in words): decrease the total serum cholesterol and to increase the total HDL cholesterol; β-lipoprotein cholesterol, mean ± S.E. ([7]; Experiment 2, 50 mg/kg/os for 4 days, standard diet, control 27.1 ± 1.1): 20.5 ± 0.8 mg/100 ml; Total serum cholesterol, mean ± S.E. ([7]; Experiment 2, 50 mg/kg/os for 4 days, standard diet, control 66.3 ± 1.7): 57.7 ± 1.5 mg/100 ml; Serum triglycerides (printed "trygylcerides"), mean ± S.E. ([7]; Experiment 2, 50 mg/kg/os for 4 days, standard diet, control 228.7 ± 18.9): 168.3 ± 13.4 mg/100 ml; Serum triglycerides, Student's t test result [7, 8]: S (significant (p <0.05)); Total serum cholesterol, Student's t test result [7, 8]: HS (highly significant (p <0.01)); β-lipoprotein cholesterol, Student's t test result [7, 8]: HS (highly significant (p <0.01)); effect on total serum cholesterol, β-lipoprotein cholesterol and serum triglycerides ([7]; Experiment 2, in words): decrease the total serum cholesterol, in particular β-lipoprotein cholesterol and serum triglycerides; LD50 at 168 h [1]: 400 to 800 mg/kg

For `O=C(O)C1(CO)Oc2ccccc2-c2ccccc21` (centres unmarked) [FCE 20561, 6H,6-carboxy-6-hydroxymethyl-dibenzo[b,d]pyran], which LD50 at 168 h [1] is on record?
The LD50 at 168 h was over 800 mg/kg.

For `N#CC1Oc2ccccc2-c2ccccc21` (centres unmarked) [FCE 20493, 6H,6-cyano-dibenzo[b,d]pyran], which LD50 at 168 h [1] is on record?
The LD50 at 168 h was 400 to 800 mg/kg.
